Source: patent publication US20230242474A1, “LIPID COMPOUND AND THE COMPOSITION THEREOF” (GUANGZHOU RIBOBIO CO., LTD, priority 2020, published 2023)
Values joined by “and” are separate entries in the source; they are usually repeats but may differ in a detail not shown here. Equal values may be shown once. Read-outs that look alike come from different tables or passages of the source.

Assays:
[1] = assay type: physicochemical
Wistar rats = assay: Safety evaluation of LNP: acute toxicity test in rat; assay type: in vivo; set-up: key to Histopathological result, Muscle tissue / Histopathological result, Heart / Histopathological result, Liver / Histopathological result, Kidney / Histopathological result, Spleen / Histopathological result, Thymus / Histopathological result, Lymph nodes / Histopathological result, Pancreas: ″—″ means no abnormality
Description: Wistar rats including 4 males and 4 females, with a weight difference of no more than 10%, were selected and randomly divided into two groups: solvent control group and tested substance group. The concentration used in the measurement was 2 mg/mL. Each animal was administered 3 times a day with the volume of each injection as 250 μl. The administration interval was 4 hours. Alternate administration to the left and right legs were performed. The total dosage level was 1.50 mg per rat, which was equivalent to 1200 times the maximum unit weight dosage level for human (assuming the maximum dosage level for human is 0.25 mg). Clinical observation was recorded as follows. Within 24 hours after administration, clinical observation was carried out every hour. Within 24-72 hours after administration, clinical observation was carried out once every 6 hours. Within 4-14 days after administration, clinical observation was carried out once a day. The symptoms of toxicity, the time when the symptoms appeared and disappeared, and the time of death (if occurred) were recorded. Body weight was recorded once a day after administration, and food intake was recorded every 2 days after administration. 14 days after the administration, all the remaining animals were weighed, then euthanized, and major organs were obtained by anatomy. Heart, liver, spleen, lung, kidney, thymus, lymph node, were weighted and relative organ weight (the organ weight/the subject weight×100%; also known as organ coefficient) was calculated. After anatomy, the heart, liver, spleen, lung, kidney, intestine, thymus, lymph node, muscle tissue at the injection site and other organs with pathological changes observed were stored in a fixation solution, and the pathology of each organ was examined by H&E staining. Lesion severity scores were given according to the table below.
Specifically, the body weight of male rats in the solvent control group continued to increase. […] The food intake per rat in the solvent control group within 24 hours was stable, within a range of 18-35 grams.

BALB/c mice = assay: Transfection efficiency: in vivo bioluminescence of luciferase mRNA encapsulated by different LNP; details: intramuscular injection, 1 μg/ mice
Description: All animals were kept in adaptive feeding for more than 7 days before experiments, free to uptake food and drink water during experimental period, illumination 12/12 h alternating light and dark, room temperature was 20-26° C., humidity was 40-70%.
Experimental method: female BALB/c mice, encapsulated luciferase mRNA with different LNP by four different administrations which included subcutaneous injection (under the armpit), tail vein injection, intraperitoneal injection, intramuscular injection (the tibialis anterior muscle of mouse hind leg); 3, 6, 24, 48 h after administration, applied in vivo fluorescence imaging system (brand: Bruker, model: XTREME) for bioluminescence detection, the specific steps were as follows: substrate preparation: took appropriate amount of substrate Luciferin (brand: Promega) and added saline to make a 10 mg/ml solution, avoided light, injected 100 μl solution into each mouse intraperitoneally. […] Put the anesthetized mouse into machine, set the bioluminescence setting and took the photos, captured the photograph and then adjusted the upper and lower values of photograph, then collected data on the concentrated distribution of fluorescence (e.g., fluorescence intensity, average photons number, and total photons number) and processed data. Statistical analysis: the in vivo imaging outcome were shown in the fluorescence intensity or average of total photons number of different animal in the same tested group, which were used to judge whether the fluorescence intensity or total photon number of luciferase mRNA encapsulated by different LNP were high or low.
The fluorescence intensity and total photons number reflects the transfection efficiency of LNP, the value is higher, referring to the efficiency of delivering encapsulated substance into cell by LNP is higher.

[2] = tested on: S protein specific IgG antibody; assay type: in vivo, BALB/c mice; details: 14 days after the second immunization, LNP with S protein mRNA, FIG. 5
[3] = tested on: T lymphocytes secreting INFγ; assay: ELISPOT count of T lymphocytes secreting INFγ after immunization with LNP-encapsulated SARS-CoV-2 S protein mRNA; assay type: in vivo, BALB/c mice; details: S protein (1 μg) stimulation, intramuscular Day 0 and Day 14, spleens after 7 days
[4] = LNP empty vector used in the rat safety study, Table 5
[5] = LNP with SARS-CoV-2 S protein mRNA, Table 9
[6] = lipid nanoparticle of the ionizable lipid with mRNA, Table 1
[7] = H&E, day 14, 1.50 mg per rat, animals 1001 and 1101
[8] = empty LNP, 1.50 mg per rat i.m., day 14, average of male, female rat
[9] = empty LNP, 1.50 mg per rat, day 14

## CCCCCCOCC(COCCCCCC)OC(=O)CCCCCCCN(CCO)CCCCCCCC(=O)OC(COCCCCCC)COCCCCCC [A18]
[1]; [4]
  PDI: 0.088
  Size (nm): 147 nm
[1]; [5]
  Encapsulated percentage (%): 94%
  PI: 0.075
  Size (nm): 86 nm
[1]; lipid nanoparticle of the ionizable lipid (ionizable lipid/phospholipid/PEG lipid/structural lipid 50/10/1.5/38.5 %) with mRNA, Table 1
  Size (nm): 104.8 nm
[1]; [6]
  Encapsulated percentage (%): 93.58%
  PDI: 0.0835
Wistar rats; 1.50 mg per rat, 1200 times the maximum unit weight dosage level for human
  Overall pathological changes after the 1200 times higher dosage level of the LNP injection: only slight pathological changes in the lungs and legs
Wistar rats; [7]
  Histopathological result, Heart: —
  Histopathological result, Kidney: —
  Histopathological result, Liver: —
  Histopathological result, Lymph nodes: —
  Histopathological result, Pancreas: —
  Histopathological result, Spleen: —
  Histopathological result, Thymus: —
Wistar rats; H&E, day 14, 1.50 mg per rat, animals 1001 and 1101, cell wraps over three grid rows: Partial stromal cell hyperplasia
  Histopathological result, Lung: Partial
Wistar rats; H&E, day 14, 1.50 mg per rat, injection site, animals 1001 and 1101
  Histopathological result, Muscle tissue: —
Wistar rats; empty LNP, 1.50 mg per rat i.m., 14 days, FIGS. 1-2
  Body weight change of rats: dropped initially, then recovered to the pre-administration level on Day 4-Day 6, and continued to increase subsequently
Wistar rats; empty LNP, 1.50 mg per rat i.m., 14 days, FIGS. 3-4
  Food intake change of rats: decreased initially, and returned to normal levels on Day 4-Day 7
Wistar rats; [8]
  Relative organ weight, Brain: 0.687
  Relative organ weight, Kidney left: 0.351
  Relative organ weight, Kidney right: 0.356
  Relative organ weight, Liver: 3.773
  Relative organ weight, Lung: 0.413
  Relative organ weight, Lymph nodes: 0.006
  Relative organ weight, Spleen: 0.250
  Relative organ weight, Thymus: 0.149
Wistar rats; empty LNP, 1.50 mg per rat i.m., day 14, organ weight/subject weight×100%, average of male, female rat
  Relative organ weight, Heart: 0.308
Wistar rats; [9]
  Heart, liver, kidney, spleen, thymus and lymph node coefficients compared with the solvent control group: did not show significant difference
  Pathological change in the lung: proliferation of partial interstitial cells in the lung
  Pathological change in the muscle tissue: a small amount of inflammatory cell infiltration in the muscle tissue
Wistar rats; empty LNP, 1.50 mg per rat, day 14, compared with solvent control
  Pathological changes of heart, liver, kidney, spleen, thymus, and lymph nodes: no pathological changes
BALB/c mice; 3 h
  Total photons number, Leg: 3.91E+09
BALB/c mice; 6 h
  Total photons number, Leg: 4.16E+09
BALB/c mice; 24 h
  Total photons number, Leg: 2.90E+08
[2]
  S protein specific IgG antibody titer: higher titers of IgG antibodies
[3]; dose 5 μg
  Elispot counted T lymphocytes secreting INFγ: 161 and 153
[3]; dose 20 μg
  Elispot counted T lymphocytes secreting INFγ: 241 and 251
